Patent US12583823B2, “Crystal form of Daprodustat, preparation method therefor and use thereof” (priority 2019, dated 2026)

Assay: Saturation solubility in water (HPLC)
Format: physicochemical
Settings: for Saturation solubility: stirring at room temperature for 12 h, HPLC
From the text: Test product: the crystal form M, crystal form CS1, crystal form CS9 and crystal form K of the compound of the formula (I), preparation methods thereof being respectively shown in Example 1, Comparative example 1, Comparative example 2 and Comparative example 3.
The operating conditions of HPLC were as follows: • Instrument: high performance liquid chromatograph (model: Thermo U3000) • Chromatographic column: Agilent C18 column (5 μm, 150 mm×4.6 mm) • Mobile phase composition and gradient elution procedure:
• Detection wavelength: 260.4 nm • Flow rate: 1 mL/min • Injection volume: 15 μL • Column temperature: 30° C.

Structure (SMILES)	Saturation solubility	Saturation solubility compared with those of the crystal form K, the crystal form CS1 and the crystal form CS9 (result in words)
O=C(O)CNC(=O)C1C(=O)N(C2CCCCC2)C(=O)N(C2CCCCC2)C1=O [Crystal form CS9, N-[(1,3-dicyclohexylhexahydro-2,4,6-trioxo-5-pyrimidinyl)carbonyl]glycine, reference compound]	19.4 µg/mL	
O=C(O)CNC(=O)C1C(=O)N(C2CCCCC2)C(=O)N(C2CCCCC2)C1=O [Crystal form M, N-[(1,3-dicyclohexylhexahydro-2,4,6-trioxo-5-pyrimidinyl)carbonyl]glycine]	42.47 µg/mL	significantly higher
O=C(O)CNC(=O)C1C(=O)N(C2CCCCC2)C(=O)N(C2CCCCC2)C1=O [Crystal form K, N-[(1,3-dicyclohexylhexahydro-2,4,6-trioxo-5-pyrimidinyl)carbonyl]glycine]	23.36 µg/mL	
O=C(O)CNC(=O)C1C(=O)N(C2CCCCC2)C(=O)N(C2CCCCC2)C1=O [Crystal form CS1, N-[(1,3-dicyclohexylhexahydro-2,4,6-trioxo-5-pyrimidinyl)carbonyl]glycine, reference compound]	24.48 µg/mL	
